Nine compounds from patent US7271173B2, “Mixed kappa/mu opioids and uses thereof” (The McLean Hospital Corporation, priority 2002, dated 2007) can be followed below.

Like-named read-outs stand apart in the source and are kept apart here.

Experiment [1] has as its target T1, human mu opioid receptor (Homo sapiens, UniProt P35372).
T1 construct: expressed in transfected cells; host or cells: CHO cells, stably transfected
Kind of experiment: Radioligand binding, [3H]DAMGO (μ), CHO membranes. The text has this:
(§1) Compounds can be characterized in radioligand receptor binding assays, using ligands that are specific for the mu, delta and kappa receptors. The binding assays may utilize guinea pig brain membranes or stably transfected Chinese Hamster Ovary (CHO) cells expressing each of the three opioid receptors. Membranes can be isolated from CHO cells that stably express either the human mu, delta or kappa opioid receptors. At approximately 80% confluence, the cells are harvested by the use of a cell scraper. The cells and media from the plates are centrifuged at 200×g for 10 mm at 4° C.; resuspended in 50 mM Tris-HCl, pH 7.5; homogenized by the use of a Polytron; centrifuged at 48,000×g for 20 mm at 4° C.; and resuspended in 50 mM Tris-HCl, pH 7.5, at a protein concentration of 5-10 mg/ml, as determined by the Bradford method. The membranes are stored frozen, at −80° C. until use.
(§2) Cell membranes are incubated at 25° C. with the radiolabeled ligands in a final volume of 1 ml of 50 mM Tris-HCl, pH 7.5. […] Nonspecific binding is measured by inclusion of 1 μM naloxone. The binding can be terminated by filtering the samples through Schleicher & Scheull No. 32 glass fiber filters using a Brandel 48-well cell harvester. The filters are subsequently washed three times with 3 ml of cold 50 mM Tris-HCl, pH 7.5, and can be counted in 2 ml of Ecoscint A scintillation fluid. For [^3H]U69,593 binding, the filters are soaked in 0.1% polyethylenimine for at least 30 minutes before use. IC50 values can be calculated by a least squares fit to a logarithm-probit analysis. Ki values of unlabeled compounds are calculated from the equation Ki=(IC50)/1+S where S=(concentration of radioligand) (Kd of radioligand). Cheng and Prusoff, Biochem. Pharmacol. 22:3099 (1973). Alternatively, guinea pig brain membranes can be prepared and used as previously described in Neumeyer, et al., J. Med. Chem. 43:114 (2000).
(§3) As described in Example 12, 0.5 milligrams of protein per sample was incubated with 12 different concentrations of the compounds in the presence of receptor-specific radioligands at 25° C. in a final volume of 1 mL (50 mM Tris-HCl buffer, pH 7.5). Nonspecific binding was determined using 10 μM naloxone. The data in Table 1 are the mean values SEM from three experiments performed in triplicate.
(§4) Four 10-ketomorphinan compounds, see Table 2, were evaluated for their affinity and selectivity at the three opioid receptors. As described in Example 12, 0.5 milligrams of protein per sample was incubated with 12 different concentrations of the compounds in the presence of receptor-specific radioligands at 25° C. in a final volume of 1 mL (50 mM Tris-HCl buffer, pH 7.5). Nonspecific binding was determined using 10 μM naloxone. The data in Table 2 are the mean values SEM from three experiments performed in triplicate.

The target in experiment [2] is T2, human delta opioid receptor (Homo sapiens, UniProt P41143).
T2 construct: expressed in transfected cells; host or cells: CHO cells, stably transfected
T2 sequence (P41143 whole entry): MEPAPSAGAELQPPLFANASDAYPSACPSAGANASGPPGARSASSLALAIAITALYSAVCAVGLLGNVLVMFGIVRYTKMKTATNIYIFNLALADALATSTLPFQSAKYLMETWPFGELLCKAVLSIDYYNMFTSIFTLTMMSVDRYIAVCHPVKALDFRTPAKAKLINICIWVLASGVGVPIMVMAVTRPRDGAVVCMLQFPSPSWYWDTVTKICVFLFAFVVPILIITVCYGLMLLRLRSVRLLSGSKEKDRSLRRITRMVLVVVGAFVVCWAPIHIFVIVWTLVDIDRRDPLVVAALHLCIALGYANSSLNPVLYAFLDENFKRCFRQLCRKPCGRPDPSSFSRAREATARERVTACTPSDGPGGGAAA
Put plainly: Radioligand binding, [3H]naltrindole (δ), CHO membranes.
Source text: as §1, §2, §3, §4

Experiment [3] has as its target T3, human kappa opioid receptor (Homo sapiens, UniProt P41145).
T3 construct: expressed in transfected cells; host or cells: CHO cells, stably transfected
Kind of experiment: Radioligand binding, [3H]U69,593 (κ), CHO membranes. The following applies: for Selectivity δ:κ / Selectivity μ:κ: ratio of Ki values.
Source text: as §1, §2, §3, §4

The target in experiment [4] is T4, kappa receptor (Homo sapiens, UniProt P41145).
T4 construct: expressed in transfected cells; host or cells: CHO cell lines
T4 sequence (P41145 whole entry): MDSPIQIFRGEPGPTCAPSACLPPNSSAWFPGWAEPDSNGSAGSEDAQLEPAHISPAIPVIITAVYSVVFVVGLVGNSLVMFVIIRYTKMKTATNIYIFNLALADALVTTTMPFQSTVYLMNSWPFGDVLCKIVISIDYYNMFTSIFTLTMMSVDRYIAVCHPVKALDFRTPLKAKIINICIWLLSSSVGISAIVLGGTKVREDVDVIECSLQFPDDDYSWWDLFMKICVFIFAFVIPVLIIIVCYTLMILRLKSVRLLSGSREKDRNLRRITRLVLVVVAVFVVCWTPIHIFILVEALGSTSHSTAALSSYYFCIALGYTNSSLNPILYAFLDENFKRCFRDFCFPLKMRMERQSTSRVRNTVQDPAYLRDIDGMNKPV
Kind of experiment: [35S]GTPgammaS binding assay, kappa receptor. In kind it is biochemical. The settings on record: CHO membranes. As to the method: (§5) Membranes from the CHO cell lines, expressing either the mu, delta or kappa receptor, are incubated with 12 concentrations of each opioid for 60 minutes at 30° C. in a final volume of 0.5 ml of assay buffer (50 mM Tris-HCl, 3 mM MgCl2, 0.2 mM EGTA, 100 mM NaCl, pH 7.5) containing 3 μM GDP and 0.08 nM [^35S]GTPgammaS. Basal binding can be determined in the presence of GDP and the absence of opioids, and nonspecific binding can be determined by including 10 μM unlabeled […]. The incubation can be terminated by filtration under vacuum through glass fiber filters, followed by three washes with 3 ml ice-cold 50 mM Tris-HCl, pH 7.5. Samples can be allowed to equilibrate overnight and can be counted in 2 ml Ecoscint A scintillation fluid for 2 minutes in a liquid scintillation counter.
(§6) For [^35S]GTPgammaS binding assays, percent stimulation of [^35S]GTPgammaS binding is defined as [(opioid-stimulated binding-basal binding) basal binding]×100. Percent stimulation is plotted as a function of opioid concentration (log scale), and EC50 and Emax values are determined by linear regression analysis. All data is compared across conditions using ANOVA and non-paired two-tailed Student's tests.

Experiment [5] deals with T5, mu receptor (Homo sapiens, UniProt P35372).
T5 construct: expressed in transfected cells; host or cells: CHO cell lines
T5 sequence (P35372 whole entry): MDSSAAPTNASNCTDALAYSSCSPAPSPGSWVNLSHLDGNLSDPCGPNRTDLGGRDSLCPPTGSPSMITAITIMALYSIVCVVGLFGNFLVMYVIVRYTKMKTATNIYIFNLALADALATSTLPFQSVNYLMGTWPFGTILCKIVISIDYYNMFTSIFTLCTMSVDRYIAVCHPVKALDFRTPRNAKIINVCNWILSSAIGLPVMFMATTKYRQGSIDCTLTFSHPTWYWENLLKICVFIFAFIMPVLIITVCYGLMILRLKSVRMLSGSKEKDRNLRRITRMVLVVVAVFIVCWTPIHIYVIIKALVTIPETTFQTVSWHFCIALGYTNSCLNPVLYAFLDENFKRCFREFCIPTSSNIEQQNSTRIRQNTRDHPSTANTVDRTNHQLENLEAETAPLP
Put plainly: [35S]GTPgammaS binding assay, mu receptor. Type of experiment: biochemical. The following applies: CHO membranes. As to the method:
as §5, §6

Where [6] appears, read: read-out: Ki (nM) ± SE [3H]Naltrindole (δ), Table 2, CHO membranes, 25° C., mean ± SEM of three experiments in triplicate.
The mark [7] stands for this setting: read-out: Ki (nM) ± SE [3H]DAMGO (μ), Table 1, CHO membranes, 25° C., mean ± SEM of three experiments in triplicate.
The mark [8] stands for this setting: read-out: Ki (nM) ± SE [3H]Naltrindole (δ), Table 1, CHO membranes, 25° C., mean ± SEM of three experiments in triplicate.
Where [9] appears, read: Table 1, CHO membranes, 25° C., mean ± SEM of three experiments in triplicate, read-out: Ki (nM) ± SE [3H]U69,593 (κ).
Setting [10] is: Table 1, CHO membranes, 25° C., mean ± SEM of three experiments in triplicate.

T1 sequence (P35372 whole entry): as above
T3 sequence (P41145 whole entry): as the sequence (P41145 whole entry) above

Turning to `O=C1c2ccc(O)cc2[C@@]23CCCC[C@H]2[C@@H]1N(CCc1ccccc1)CC3` [Compound 77, 3-Hydroxy-10-keto-N-(2-phenylethyl)morphinan], the Ki (as a rule, the dissociation constant of the complex between target and ligand, obtained from inhibition or displacement) worked out at 0.63 ± 0.07 nM in experiment [1], 9.7 ± 0.34 nM in experiment [2] (setting [6]) and 7.7 ± 0.19 nM in experiment [3]. In addition, the “Selectivity δ:κ” value in experiment [3] (Table 2) is on record as 1.3. In addition, in experiment [3] (Table 2), the “Selectivity μ:κ” value amounted to 0.08.
For the compound `Nc1nc2cc3c(cc2s1)C[C@@H]1[C@@H]2CCCC[C@]32CCN1CC1CC1` [Compound 71], in experiment [1] (setting [7]), the Ki worked out at 1.5 ± 0.21 nM. Besides, the Ki in experiment [2] (setting [8]) worked out at 29 ± 2 nM. In experiment [3] (setting [9]), the Ki stood at 0.049 ± 0.0046 nM. For the same compound, in experiment [3] (Table 1), the “Selectivity δ:κ” value was 590 and the “Selectivity μ:κ” value is recorded as 30. Moreover, in experiment [4], the “Efficacy (agonist, partial agonist, antagonist) at κ receptor” value is “κ and μ agonist”; the “Relative potency κ versus μ” value is “more potent at κ than at μ”. The “Efficacy (agonist, partial agonist, antagonist) at μ receptor” value in experiment [5] is “κ and μ agonist”.
As for `C#CCN1CC[C@]23CCCC[C@H]2[C@H]1C(=O)c1ccc(O)cc13` [Compound 73, 3-Hydroxy-10-keto-N-propargylmorphinan], the Ki turned out to be 190 ± 4.4 nM in experiment [1], 2300 ± 190 nM in experiment [2] (setting [6]) and 60 ± 1.7 nM in experiment [3]. Besides, in experiment [3] (Table 2), the “Selectivity δ:κ” value is recorded as 38. In experiment [3] (Table 2), the “Selectivity μ:κ” value is given as 3.2.
For `Nc1nc2cc3c(cc2s1)C[C@@H]1[C@@H]2CCCC[C@]32CCN1CC1CCC1` [Compound 72], the Ki in experiment [1] (setting [7]) is 7.1 ± 0.47 nM; in experiment [2] (setting [8]), 230 ± 21 nM; in experiment [3] (setting [9]) it was 0.79 ± 0.02 nM. The “Selectivity δ:κ” value in experiment [3] (Table 1) amounted to 290. Further, the “Selectivity μ:κ” value in experiment [3] (Table 1) amounted to 9.0. Further, the “Efficacy (agonist, partial agonist, antagonist) at κ receptor” value in experiment [4] was “κ agonist”. Moreover, in experiment [5], the “Efficacy (agonist, partial agonist, antagonist) at μ receptor” value was “weak agonist and antagonist activity”.
On to `O=C1c2ccc(O)cc2[C@@]23CCCC[C@H]2[C@@H]1N(CCCF)CC3` [Compound 75, 3-Hydroxy-10-keto-N-(3-fluoropropyl)morphinan], for which the Ki worked out at 20 ± 4.8 nM in experiment [1] and 690 ± 171 nM in experiment [2] (setting [6]).
With `CN1CC[C@]23CCCC[C@H]2[C@H]1Cc1c3ccc2nc(N)sc12` [Compound 70], the Ki came out at 1.1 ± 0.13 nM in experiment [1] (setting [10]), 190 ± 9.7 nM in experiment [2] (setting [10]) and 6.4 ± 0.53 nM in experiment [3] (setting [9]). Besides, in experiment [3] (Table 1), the “Selectivity δ:κ” value is given as 30. In addition, the “Selectivity μ:κ” value in experiment [3] (Table 1) is given as 0.17.
Take `COCCN1CC[C@]23CCCC[C@H]2[C@H]1C(=O)c1ccc(O)cc13` [Compound 76, 3-Hydroxy-10-keto-N-(2-methoxyethyl)morphinan]: the Ki in experiment [1] was 90 ± 10 nM; in experiment [2], greater than 10000 nM; in experiment [3] it was 17 ± 0.6 nM. Besides, the “Selectivity δ:κ” value in experiment [3] (Table 2) was 590. In addition, the “Selectivity μ:κ” value in experiment [3] (Table 2) stood at 5.3.
Consider `CN1CC[C@]23CCCC[C@H]2[C@H]1Cc1cc2sc(N)nc2cc13` [Compound 69], for which the inhibition constant (Ki) in experiment [1] (setting [7]) amounted to 130 ± 5.8 nM; in experiment [2] (setting [8]), 1100 ± 30 nM; in experiment [3] (setting [9]) it was 29 nM. Also, the “Selectivity δ:κ” value in experiment [3] (Table 1) worked out at 38. Moreover, the “Selectivity μ:κ” value in experiment [3] (Table 1) is 4.5.
Take `O=C1c2ccc(O)cc2[C@@]23CCCC[C@H]2[C@@H]1N(CC1CCC1)CC3` [Compound 74, 3-Hydroxy-10-keto-N-cyclobutylmethylmorphinan]: the Ki in experiment [1] (read-out: Ki (nM) ± SE [3H]DAMGO (μ), Table 2, CHO membranes, 25° C., mean ± SEM of three experiments in triplicate) amounted to 3.3 ± 0.26 nM; in experiment [2] (setting [6]), 260 ± 55 nM; in experiment [3] (Table 2, CHO membranes, 25° C., mean ± SEM of three experiments in triplicate, read-out: Ki (nM) ± SE [3H]U69,593 (κ)) it was 0.48 ± 0.027 nM. Further, in experiment [3] (Table 2), the “Selectivity δ:κ” value amounted to 540. Besides, in experiment [3] (Table 2), the “Selectivity μ:κ” value was 6.9.
